{
  "source": "patent US12708630B2",
  "about": "“Combined therapy of 4′-thio-5-aza-2′-deoxycytidine and Venetoclax” (PINOTBIO, INC., priority 2021, dated 2026)",
  "key": {"[1]": {"system": "systemic MV4-11 engraftment model", "procedure": "After establishing a systemic MV4-11 engraftment model that more accurately depicts the disease in humans, Aza-T-dCyd was administered orally at doses ranging from 0.4 to 1.5 mg/kg.\nAfter establishment of the systemic MV4-11 engraftment model, Aza-T-dCyd was administered orally at doses of 1.5, 2.0, and 2.5 mg/kg (using the standard dose/dosing schedule used in preclinical trials for decitabine/azacytidine).\nAfter establishing a systemic MV4-11 engraftment model, blood was collected at pre-treatment (Day 21) and mid-treatment (Day 36, 56, 77) in the Aza-T-dCyd and Decitabine/Azacytidine groups and analyzed for complete blood count (CBC) values.\nTo determine whether the anti-cancer efficacy in the systemic MV4-11 engraftment model was directly related to the ability to suppress the number of cancer cells, we performed experiments to measure body luminescence after systemic engraftment using the luciferase-transfected Mv4-11 cell line."}, "DNMT1 [2]": {"target": "T1, DNMT1 (Homo sapiens, UniProt P26358)", "T1 sequence (P26358 whole entry)": "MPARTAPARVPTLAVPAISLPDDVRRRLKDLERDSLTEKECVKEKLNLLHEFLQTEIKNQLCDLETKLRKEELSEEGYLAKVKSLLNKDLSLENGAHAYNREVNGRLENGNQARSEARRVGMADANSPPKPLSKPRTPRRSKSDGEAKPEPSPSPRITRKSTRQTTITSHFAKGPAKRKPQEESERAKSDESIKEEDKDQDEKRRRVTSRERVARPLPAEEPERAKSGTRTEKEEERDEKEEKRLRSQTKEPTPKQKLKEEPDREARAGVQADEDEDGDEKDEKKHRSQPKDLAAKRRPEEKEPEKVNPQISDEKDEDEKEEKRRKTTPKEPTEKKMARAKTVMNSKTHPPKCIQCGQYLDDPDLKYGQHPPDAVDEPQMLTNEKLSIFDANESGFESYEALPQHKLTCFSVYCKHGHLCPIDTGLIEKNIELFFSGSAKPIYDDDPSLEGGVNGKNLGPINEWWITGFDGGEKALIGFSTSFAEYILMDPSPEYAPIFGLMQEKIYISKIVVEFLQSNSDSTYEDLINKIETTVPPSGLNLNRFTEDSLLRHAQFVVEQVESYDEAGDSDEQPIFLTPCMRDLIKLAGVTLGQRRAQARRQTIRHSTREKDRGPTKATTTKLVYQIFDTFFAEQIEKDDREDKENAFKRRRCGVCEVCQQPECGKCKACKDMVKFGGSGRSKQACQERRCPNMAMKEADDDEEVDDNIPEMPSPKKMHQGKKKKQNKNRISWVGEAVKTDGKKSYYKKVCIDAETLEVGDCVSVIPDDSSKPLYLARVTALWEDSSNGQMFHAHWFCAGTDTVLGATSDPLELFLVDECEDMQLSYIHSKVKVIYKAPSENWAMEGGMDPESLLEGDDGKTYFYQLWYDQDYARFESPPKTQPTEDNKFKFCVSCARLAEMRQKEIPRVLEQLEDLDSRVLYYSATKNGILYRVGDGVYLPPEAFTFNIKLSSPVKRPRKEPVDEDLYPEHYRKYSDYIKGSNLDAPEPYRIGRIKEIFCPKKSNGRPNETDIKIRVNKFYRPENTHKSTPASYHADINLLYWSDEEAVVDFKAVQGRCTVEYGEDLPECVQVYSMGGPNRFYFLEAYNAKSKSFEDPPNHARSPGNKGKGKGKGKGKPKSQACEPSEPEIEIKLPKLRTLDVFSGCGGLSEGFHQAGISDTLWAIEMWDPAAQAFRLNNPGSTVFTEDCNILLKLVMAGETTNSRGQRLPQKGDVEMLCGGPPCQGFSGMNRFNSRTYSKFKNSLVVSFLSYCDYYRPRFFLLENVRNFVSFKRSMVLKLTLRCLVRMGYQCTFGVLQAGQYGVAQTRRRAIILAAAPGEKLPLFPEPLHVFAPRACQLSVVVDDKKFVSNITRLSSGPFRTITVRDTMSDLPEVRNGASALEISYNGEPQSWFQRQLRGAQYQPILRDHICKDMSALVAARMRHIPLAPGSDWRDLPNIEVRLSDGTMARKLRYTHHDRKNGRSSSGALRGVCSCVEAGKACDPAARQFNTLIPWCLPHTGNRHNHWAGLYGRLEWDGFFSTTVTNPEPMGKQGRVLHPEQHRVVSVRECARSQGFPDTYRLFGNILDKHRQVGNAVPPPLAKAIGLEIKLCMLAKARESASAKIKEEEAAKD", "test": "DNMT1 protein Western blotting in cancer cell lines", "format": "cell-based", "set-up": "endogenous in cells; host or cells: MV4-11, KG-1a, CCRF-CEM, NCI-H23, HCT-116, IGROV-1 (also HL-60, THP-1)"}, "cytidine deaminase": {"system": "cytidine deaminase", "test": "Degradation by cytidine deaminase", "conditions": "compared to Decitabine/Azacytidine, oral administration", "excerpt": "Decitabine/Azacytidine is susceptible to metabolism by cytidine deaminases in the body, resulting in an unstable PK profile that limits its efficacy."}, "[3]": {"system": "p15 tumor suppressor gene", "test": "p15 tumor suppressor gene re-expression (RT-PCR) in MV4-11 cells", "format": "cell-based", "conditions": "MV4-11 cell line", "procedure": "Therefore, to determine the re-expression of tumor suppressor genes through epigenetic regulation mechanisms induced by DNMT1 inhibition upon Aza-T-dCyd (NTX-301) treatment, MV4-11 cells, an AML cell line, were treated with Aza-T-dCyd at different concentrations. […] Table 1 below compares the degree of p15 mRNA re-expression after DNMT1 inhibitor (Aza-T-dCyd/Decitabine) treatment in the MV4-11 cell line, an AML cell (fold increase from 0 nM is shown)."}, "leukemia cell lines": {"system": "leukemia cell lines", "test": "Growth-inhibitory activity on leukemia cell lines (GI50)", "format": "cell-based", "conditions": "72 h, read-out: GI50 values (half maximal growth inhibitory concentrations)", "procedure": "The growth-inhibitory activity of Aza-T-dCyd, a DNMT1 inhibitor, was measured in leukemia cell lines to determine its inhibitory effect on cell proliferation.\nThe growth-inhibitory activity of DNMT1 inhibitors, Aza-T-dCyd and Decitabine, was measured on leukemia cell lines to determine their effect on cell proliferation."}, "DNA methylation": {"system": "DNA methylation", "test": "DNA demethylation", "format": "cell-based", "excerpt": "Through DNA demethylation caused by Aza-T-dCyd treatment, various tumor suppressor genes and genes required for differentiation induction of AML cells were reactivated, and the reactivated expression patterns of these genes were confirmed by RNA-seq data analysis (FIG. 24)."}, "HL-60 AML xenograft": {"system": "HL-60 AML xenograft", "test": "HL-60 AML xenograft model", "format": "in vivo"}, "HCT-116 (colorectal)": {"system": "HCT-116 (colorectal)", "test": "HCT-116 (colorectal) xenograft model", "format": "in vivo, Mouse", "conditions": "colorectal (HCT-116) xenograft, Decitabine comparator, dose not given", "procedure": "The efficacy of Aza-T-dCyd was confirmed by tumor growth curves after administration of Aza-T-dCyd in various solid cancer xenograft models. Aza-T-dCyd at a dose of 1~2 mg/kg was administered repeatedly for 2~6 cycles in QD×5, showing excellent anti-cancer effects (evidenced by test/control (T/C) value≤40%)."}, "BL0382PD PDX (bladder)": {"system": "BL0382PD PDX (bladder)", "format": "in vivo, Mouse", "conditions": "NSG, mouse, in vivo, 0.75 mg/kg, 2 cycles", "excerpt": "The efficacy of Aza-T-dCyd was confirmed by tumor growth curves after administration of Aza-T-dCyd in various solid cancer xenograft models. […]"}, "DNMT1 [4]": {"target": "T1, DNMT1", "test": "DNMT1 expression in HL-60 xenograft tumor samples", "format": "in vivo, mice", "set-up": "tumor samples were collected on day 11 to determine the expression of DNMT1, DNMT3A, and DNMT3B; from tissue; host or cells: HL-60 xenograft tumour samples (mouse host)", "conditions": "2 mg/kg NTX-301 or 0.75 mg/kg Decitabine intraperitoneally, day 11", "procedure": "(§1) As the efficacy of DNMT1 inhibitors correlates with their selective profile for targeting DNMT1 and the de novo methyltransferases DNMT3A and DNMT3B, we confirmed the expression of DNMT1, DNMT3A, and DNMT3B in the Aza-T-dCyd and Decitabine treated groups in this xenograft model (FIG. 27).\n(§2) In the HL-60 xenograft mice model, 2 mg/kg of NTX-301 (Aza-T-dCyd) or 0.75 mg/kg of Decitabine were administered intraperitoneally, and then tumor samples were collected on day 11 to determine the expression of DNMT1, DNMT3A, and DNMT3B. […] On the other hand, the expression levels of DNMT3A and DNMT3B were different in the Aza-T-dCyd and Decitabine treatment groups."}, "DNMT3B": {"target": "DNMT3B (Homo sapiens, UniProt Q9UBC3)", "test": "DNMT3B expression in HL-60 xenograft tumor samples", "format": "in vivo, mice", "set-up": "tumor samples were collected on day 11 to determine the expression of DNMT1, DNMT3A, and DNMT3B; from tissue; host or cells: HL-60 xenograft tumour samples (mouse host)", "conditions": "2 mg/kg NTX-301 or 0.75 mg/kg Decitabine intraperitoneally, day 11", "procedure": "as §1, §2"}, "MV4-11 AML cells": {"system": "MV4-11 AML cells", "test": "MV4-11 AML xenograft implanted subcutaneously, combination with venetoclax", "format": "in vivo, mice", "conditions": "administered alone (Aza-T-dCyd 2 mpk), FIGS. 30 and 31", "procedure": "After establishing a xenograft systemic AML model in which MV4-11 AML cells were implanted subcutaneously in mice, Aza-T-dCyd alone at 2.0 mpk for 1 cycle (5 days on, 2 days off, 5 days on, 9 days off) was administered (PO) or Aza-T-dCyd 0.5, 1.0 or 2.0 mpk plus venetoclax 50 mpk or 100 mpk administered orally (PO) for 1 cycle (venetoclax on for 5 days, off for 2 days, repeated for 3 weeks). Anti-cancer efficacy was determined in disease models in which azacitidine 5.0 mpk was administered intraperitoneally (IP) alone or in combination with optimal dose of azacitidine (2.5 mpk) and venetoclax 50 mpk or 100 mpk as a control."}},
  "note": "Where two headings read alike, the source gives them in different places.",
  "data": [
    {"compound": "Nc1ncn([C@@H]2O[C@H](CO)[C@@H](O)[C@H]2O)c(=O)n1", "note": "[Azacytidine, reference compound]", "values": [
      {"measurement": "complete blood count (WBC, RBC, Neutrophil, Platelet)", "setting": "[1]; mouse, in vivo", "result": "severe neutropenia"}
    ]},
    {"compound": "Nc1ccn([C@H]2C[C@H](O)[C@@H](CO)S2)c(=O)n1", "note": "[T-dCyd, reference compound]", "values": [
      {"measurement": "DNMT1 inhibition", "setting": "DNMT1 [2]; CCRF-CEM (ALL cell line) cells, FIG. 12", "result": "inhibits DNMT1"},
      {"measurement": "DNMT1 inhibition", "setting": "DNMT1 [2]; KG-1a (AML cell line) cells, FIG. 11", "result": "inhibits DNMT1"},
      {"measurement": "DNMT1 inhibition", "setting": "DNMT1 [2]; NCI-H23, HCT-116 and IGROV-1 cell lines, FIG. 13", "result": "inhibits DNMT1"}
    ]},
    {"compound": "Nc1ncn(C2CC(O)C(COP(=O)(O)OP(=O)(O)OP(=O)(O)O)S2)c(=O)n1", "note": "(stereo not drawn) [aza-T-dCTP]", "values": [
      {"measurement": "rate of degradation by cytidine deaminase", "setting": "cytidine deaminase", "result": "slower rate of degradation by cytidine deaminase"}
    ]},
    {"compound": "Nc1ncn([C@H]2C[C@H](O)[C@@H](CO)O2)c(=O)n1", "note": "[Decitabine, 5-aza-2′-deoxycytidine]", "values": [
      {"measurement": "p15 mRNA re-expression", "setting": "[3]; 6 nM", "result": "1.3 ± 0.27", "unit": "fold increase from 0 nM"},
      {"measurement": "p15 mRNA re-expression", "setting": "[3]; 20 nM", "result": "1.7 ± 0.85", "unit": "fold increase from 0 nM"},
      {"measurement": "p15 mRNA re-expression", "setting": "[3]; 60 nM", "result": "2.2 ± 0.52", "unit": "fold increase from 0 nM"},
      {"measurement": "p15 mRNA re-expression", "setting": "[3]; 200 nM", "result": "4.3 ± 0.83", "unit": "fold increase from 0 nM"},
      {"measurement": "GI50", "setting": "leukemia cell lines", "result": "24 to 4300", "unit": "nM"},
      {"measurement": "pattern of DNA demethylation", "setting": "DNA methylation", "result": "genome-wide demethylation"},
      {"measurement": "anti-AML activity and survival", "setting": "[1]; Aza-T-dCyd oral 1.5, 2.0 and 2.5 mg/kg, decitabine/azacytidine at standard preclinical dose/schedule", "result": "no therapeutic effect"},
      {"measurement": "complete blood count (WBC, RBC, Neutrophil, Platelet)", "setting": "[1]; blood at Day 21, 36, 56, 77", "result": "all individuals died before blood samples were collected"},
      {"measurement": "tolerability above the maximum dose", "setting": "HL-60 AML xenograft; above 0.75 mg/kg", "result": "animals died above this dose"},
      {"measurement": "tumor suppression", "setting": "HL-60 AML xenograft; maximum dose 0.75 mg/kg", "result": "no tumor suppression"},
      {"measurement": "T/C", "setting": "HCT-116 (colorectal)", "result": 45, "unit": "%"},
      {"measurement": "toxicity", "setting": "BL0382PD PDX (bladder)", "result": "showed toxicity after 2 cycles"},
      {"measurement": "DNMT1 inhibition", "setting": "DNMT1 [2]; MV4-11 (AML cell line) cells, different concentrations, FIG. 10", "result": "inhibits DNMT1"},
      {"measurement": "DNMT1 expression in tumor samples", "setting": "DNMT1 [4]", "result": "significantly reduced"},
      {"measurement": "DNMT3B expression level in tumor samples", "setting": "DNMT3B", "result": "no effect was observed"}
    ]},
    {"compound": "CC1(C)CCC(CN2CCN(c3ccc(C(=O)NS(=O)(=O)c4ccc(NCC5CCOCC5)c([N+](=O)[O-])c4)c(Oc4cnc5[nH]ccc5c4)c3)CC2)=C(c2ccc(Cl)cc2)C1", "note": "[Venetoclax]", "values": [
      {"measurement": "anti-cancer effect (tumor volume), single agent", "setting": "MV4-11 AML cells", "result": "limited tumor regression"}
    ]}
  ]
}
